From patent US20100240709A1, “Sulfoximine Derivatives as p38 MAP Kinase Inhibitors” (priority 2005, published 2010)

Key:
TNF α [1] = assay: Ex-vivo human whole blood, LPS-induced TNF-α by ELISA; type: cell-based; settings: LPS 1 ng/ml; for inhibition at 10 µM / inhibition at 100 µM: Homo sapiens
Experimental: (§1) Blood was collected by venous puncture from 3 different volunteers in separate heparinized (100 IU/ml) tubes and incubated in the presence of 10 μM and 100 μM of test compounds for 1 hr at 37° C. Following this LPS (1 ng/ml final concentration) was added and incubation continued for 5 hr. The reaction was terminated by placing the samples on ice for 10 min. The samples were then centrifuged, plasma separated and stored at −70° C. until the analysis of TNF-α and IL-1β by ELISA: […]

IL-1 β = assay: Ex-vivo human whole blood, LPS-induced IL-1β by ELISA; type: cell-based; settings: LPS 1 ng/ml; for inhibition at 10 µM / inhibition at 100 µM: Homo sapiens
Experimental: as §1

TNF α [2] = assay: In vivo LPS induced TNF α inhibition in Balb/c mice; settings: 10 mg/kg orally, 30 minutes prior to i.v. LPS (50 μg/kg); blood 60 minutes after LPS
Experimental: Balb/c mice were kept for acclimatization in the observation room for two days before the experiment. On the day of the experiment, animals were weighed and the test compounds to be administered calculated at a 10 mg/kg body weight basis in a total volume of 2 ml. Control groups received vehicle alone while the treatment groups received the test compound, both given orally, 30 minutes prior to intravenous injection of LPS (50 μg/kg). Blood was collected 60 minutes after the LPS injection from retro orbital plexus, the serum separated & stored in deep freeze till the estimation of TNF by ELISA method.

p38 MAP kinase = p38 MAP kinase (Homo sapiens, UniProt Q16539); assay: p-38 MAPK Enzyme assay (in vitro ELISA, ATF-2 substrate); type: biochemical; settings: ELISA detection of phosphorylated ATF-2
Description: The compounds were screened using an in vitro ELISA assay for p38 MAP kinase activity. Activated p38 MAP kinase during the course of its biological function phosphorylates its substrates. The assay was based on the detection of a phosphorylated p38 MAP kinase substrate using ATF-2 as the biological substrate. More the activity of the p38 MAP kinase inhibitor in the reaction mixture less will be the amount of active p38 MAP kinase available to phosphorylate ATF-2. So, lower OD value will indicate the higher inhibition of p38 MAP kinase by the specific p38 MAP kinase inhibitor. The quantitation of phosphorylated ATF-2 at varying concentrations of p38 MAP kinase inhibitor was used to determine the IC50 by fitting the results to a logistic dose-response program (Graphpad Prism, CA). IC50 was defined as the concentration of compound required to achieve 50% inhibition of p38 MAP kinase activity.

Chain of p38 MAP kinase (Q16539 whole entry): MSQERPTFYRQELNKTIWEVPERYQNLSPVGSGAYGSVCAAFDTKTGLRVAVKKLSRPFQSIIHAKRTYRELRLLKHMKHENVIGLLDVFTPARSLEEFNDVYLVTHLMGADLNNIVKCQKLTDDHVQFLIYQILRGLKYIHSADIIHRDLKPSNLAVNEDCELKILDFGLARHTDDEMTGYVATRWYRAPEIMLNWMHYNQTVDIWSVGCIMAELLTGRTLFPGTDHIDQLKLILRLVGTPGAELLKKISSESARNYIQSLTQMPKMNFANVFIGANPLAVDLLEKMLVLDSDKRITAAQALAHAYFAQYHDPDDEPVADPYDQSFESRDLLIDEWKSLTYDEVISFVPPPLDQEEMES

SMILES: CCc1nc(-c2ccc(F)cc2)c(-c2ccnc(N=S(C)(=O)c3cccc(C)c3)c2)s1 (centres unmarked) [Example 46, S-Methyl-S-3-methylphenyl-N-[4-(2-ethyl-4-fluorophenyl-thiazol-5-yl)-pyridine]-sulfoximine]
- TNF α % inhibition (TNF α [1]; Conc 10 μM): 40.9%
- TNF α % inhibition (TNF α [1]; Conc 100 μM): 90.1%
- IL-1 β % inhibition (IL-1 β; Conc 10 μM): 73.3%
- IL-1 β % inhibition (IL-1 β; Conc 100 μM): 95.8%
- In vivo LPS induced TNF α inhibition in Balb/c mice TNF α % inhibition (10 mg/kg) (TNF α [2]): 56.80%

SMILES: CCc1nc(-c2ccc(F)cc2)c(-c2ccnc(N=S(C)(=O)c3cccc(F)c3)c2)s1 (centres unmarked) [Example 47, S-Methyl-S-3-fluorophenyl-N-[4-{2-ethyl-4-(4-fluorophenyl)-thiazol-5-yl}-pyridine-2-yl]-sulfoximine]
- inhibition at 10 µM (TNF α [1]; Conc 10 μM): 24.4%
- inhibition at 100 µM (TNF α [1]; Conc 100 μM): 89.6%
- inhibition at 10 µM (IL-1 β; Conc 10 μM): 78.1%
- inhibition at 100 µM (IL-1 β; Conc 100 μM): 98.5%
- In vivo LPS induced TNF α inhibition in Balb/c mice TNF α % inhibition (10 mg/kg) (TNF α [2]): 48.60%

SMILES: CCc1nc(-c2ccc(F)cc2)c(-c2ccnc(N=S(C)(=O)c3ccc(F)cc3)c2)s1 (single isomer, unassigned; (+)) [Example 44, (+)-S-Methyl-S-4-fluoro-phenyl-N-[4-(2-ethyl-4-(4-fluoro-phenyl)-1,3-thiazol-5-yl)-pyridine-2-yl]-sulfoximine]
- TNF α % inhibition (TNF α [1]; Conc 10 μM): 32.74%
- TNF α % inhibition (TNF α [1]; Conc 100 μM): 95.59%
- IL-1 β % inhibition (IL-1 β; Conc 10 μM): 64.82%
- IL-1 β % inhibition (IL-1 β; Conc 100 μM): 92.36%
- In vivo LPS induced TNF α inhibition in Balb/c mice TNF α % inhibition (10 mg/kg) (TNF α [2]): 50.4%
- IC50 (p38 MAP kinase): 6.6 µM

SMILES: CCc1nc(-c2ccc(F)cc2)c(-c2ccnc(N=S(C)(=O)c3ccc(F)cc3)c2)s1 (single isomer, unassigned; (-)) [Example 43, (−)-S-Methyl-S-4-fluoro-phenyl-N-[4-(2-ethyl-4-(4-fluoro-phenyl)-1,3-thiazol-5-yl)-pyridine-2-yl]-sulfoximine]
- TNF α % inhibition (TNF α [1]; Conc 100 μM): 55.14%
- inhibition at 10 µM (TNF α [1]; Conc 10 μM): 17.8%
- IL-1 β % inhibition (IL-1 β; Conc 10 μM): 24.62%
- inhibition at 100 µM (IL-1 β; Conc 100 μM): 79.3%
- In vivo LPS induced TNF α inhibition in Balb/c mice TNF α % inhibition (10 mg/kg) (TNF α [2]): 49.4%
- IC50 (p38 MAP kinase): 71 µM

SMILES: CCc1nc(-c2cccc(C)c2)c(-c2ccnc(N=S(=O)(CC(C)C)c3ccccc3)c2)s1 (centres unmarked) [Example 8, S-Isobutyl-S-phenyl-N-[4-(2-ethyl-4-m-tolyl-thiazol-5-yl)-pyridin-2-yl]-sulfoximine]
- IC50 (p38 MAP kinase): 55.4 µM

SMILES: CC(C)S(=O)(=Nc1cc(-c2scnc2-c2ccc(F)cc2)ccn1)c1ccccc1 (centres unmarked) [Example 74]
- IC50 (p38 MAP kinase): 7.5 µM

SMILES: CCc1nc(-c2ccc(F)cc2)c(-c2ccnc(N=S(=O)(CC)c3ccccc3)c2)s1 (centres unmarked) [Example 38, S-Ethyl-S-phenyl-N-{4-[2-ethyl-4-(4-fluoro-phenyl)-thiazol-5-yl]-pyridin-2-yl}-sulfoximine]
- IC50 (p38 MAP kinase): 0.17 µM

SMILES: CCc1nc(-c2ccc(F)cc2)c(-c2ccnc(N=S(C)(=O)c3ccccc3)c2)s1 (single isomer, unassigned; (+)) [Example 40, (+)-S-Methyl-S-phenyl-N-[4-(2-ethyl-4-(4-fluoro-phenyl)-1,3-thiazol-5-yl)-pyridine-2-yl]-sulfoximine]
- IC50 (p38 MAP kinase): 2.7 µM

SMILES: CCc1nc(-c2ccccc2)c(-c2ccnc(N=S(C)(=O)c3cccc(F)c3)c2)s1 (stereo not drawn) [Example 25, S-Methyl-S-(3-fluorophenyl)-N-[4-{2-ethyl-4-phenyl-thiazol-5-yl}-pyridine]-sulfoximine]
- TNF α % inhibition (TNF α [1]; Conc 10 μM): 15.39%
- TNF α % inhibition (TNF α [1]; Conc 100 μM): 64.06%
- IL-1 β % inhibition (IL-1 β; Conc 10 μM): 38.5%
- IL-1 β % inhibition (IL-1 β; Conc 100 μM): 79.4%
- In vivo LPS induced TNF α inhibition in Balb/c mice TNF α % inhibition (10 mg/kg) (TNF α [2]): 59.6%

SMILES: CCc1nc(-c2ccc(F)cc2)c(-c2ccnc(N=S(=O)(c3ccccc3)C(C)C)c2)s1 (single isomer, unassigned; (-)) [Example 36, (−)-Isopropyl-S-phenyl-N-{4-[2-ethyl-4-(4-fluoro-phenyl)-thiazol-5-yl]-pyridin-2-yl}-sulfoximine]
- inhibition at 10 µM (TNF α [1]; Conc 10 μM): 34.3%
- inhibition at 100 µM (TNF α [1]; Conc 100 μM): 97.7%
- inhibition at 10 µM (IL-1 β; Conc 10 μM): 38.9%
- inhibition at 100 µM (IL-1 β; Conc 100 μM): 96.3%
- In vivo LPS induced TNF α inhibition in Balb/c mice TNF α % inhibition (10 mg/kg) (TNF α [2]): 43.3%
- IC50 (p38 MAP kinase): 13.4 µM

SMILES: CCc1nc(-c2ccccc2)c(-c2ccnc(N=S(C)(=O)c3cccc(C)c3)c2)s1 (stereo not drawn) [Example 24, S-Methyl-S-(3-Methylphenyl)-N-[4-{2-ethyl-4-phenyl-thiazol-5-yl}-pyridine]-sulfoximine]
- inhibition at 10 µM (TNF α [1]; Conc 10 μM): 7.43%
- inhibition at 100 µM (TNF α [1]; Conc 100 μM): 69.7%
- inhibition at 10 µM (IL-1 β; Conc 10 μM): 22.7%
- inhibition at 100 µM (IL-1 β; Conc 100 μM): 81.2%
- In vivo LPS induced TNF α inhibition in Balb/c mice TNF α % inhibition (10 mg/kg) (TNF α [2]): 39.3%
- IC50 (p38 MAP kinase): 9.8 µM

SMILES: CCc1nc(-c2ccc(C)cc2)c(-c2ccnc(N=S(C)(=O)c3ccccc3)c2)s1 (centres unmarked) [Example 64, S-Methyl-S-phenyl-N-{4-[2-ethyl-4-p-tolyl-thiazol-5-yl]-pyridin-2-yl}-sulfoximine]
- IC50 (p38 MAP kinase): 9.4 µM

SMILES: CCc1nc(-c2ccc(F)cc2)c(-c2ccnc(N=S(C)(=O)c3ccc(OC)cc3)c2)s1 (stereo not drawn) [Example 34, S-(4-Methoxy-phenyl)-S-methyl-N-{-4-[2-ethyl-4-(4-fluoro-phenyl)-thiazol-5-yl]-pyridin-2-yl}-sulfoximine]
- IC50 (p38 MAP kinase): 6.4 µM

SMILES: CCc1nc(-c2ccc(F)c(F)c2)c(-c2ccnc(N=S(=O)(c3ccccc3)C(C)C)c2)s1 (centres unmarked) [Example 60, S-Isopropyl-S-phenyl-N-{4-[2-ethyl-4-(3,4-difluorophenyl)-thiazol-5-yl]-pyridin-2-yl}-sulfoximine]
- inhibition at 10 µM (TNF α [1]; Conc 10 μM): 36.7%
- inhibition at 100 µM (TNF α [1]; Conc 100 μM): 81.7%
- inhibition at 10 µM (IL-1 β; Conc 10 μM): 35.2%
- inhibition at 100 µM (IL-1 β; Conc 100 μM): 84.5%
- In vivo LPS induced TNF α inhibition in Balb/c mice TNF α % inhibition (10 mg/kg) (TNF α [2]): 53.65%
- IC50 (p38 MAP kinase): 11.8 µM

SMILES: CCCCS(=O)(CCCC)=Nc1cc(-c2sc(CC)nc2-c2cccc(C)c2)ccn1 [Example 16, Di-n-butyl-N-[4-(2-ethyl-4-(3-methylphenyl)-1,3-thiazol-5-yl)-pyridine-2-yl]-sulfoximine]
- IC50 (p38 MAP kinase): 1.9 µM

SMILES: CCc1nc(-c2cccc(C)c2)c(-c2ccnc(N=S(C)(=O)c3ccccc3)c2)s1 (centres unmarked) [Example 4, S-Methyl-S-phenyl-N-[4-(2-ethyl-4-(3-methylphenyl)-1,3-thiazol-5-yl)-pyridine-2-yl]-sulfoximine]
- IC50 (p38 MAP kinase): 1.12 µM

SMILES: CCc1nc(-c2ccccc2)c(-c2ccnc(N=S(C)(=O)c3ccc(OC)cc3)c2)s1 (centres unmarked) [Example 23]
- IC50 (p38 MAP kinase): 6.6 µM

SMILES: CCc1nc(-c2cccc(C)c2)c(-c2ccnc(N=S3(=O)CCCC3)c2)s1 [Example 19, 1-Imino-N-[4-(2-ethyl-4-(3-methylphenyl)-1,3-thiazol-5-yl)-pyridine-2-yl]-tetrahydro-thiophene-1-oxide]
- IC50 (p38 MAP kinase): 6.8 µM

SMILES: Cc1cccc(-c2nc(-c3ccc([S+](C)[O-])cc3)sc2-c2ccnc(N=S(C)(=O)c3ccccc3)c2)c1 (centres unmarked) [Example 57, S-Methyl-S-phenyl-N-{-4-[2-(4-methylsulfinyl-phenyl)-4-m-tolyl-thiazol-5-yl]-pyridin-2-yl}-sulfoximine]
- IC50 (p38 MAP kinase): 6.5 µM
